Test results published in US7795235B2, “Semi-soft c-class immunostimulatory oligonucleotides” (Coley Pharmaceutical GmbH, priority 2004, dated 2010).
Oligonucleotides are written 5' to 3', each unit as a sugar letter and its base; * is a phosphorothioate linkage, no mark a phosphodiester; rarer units and linkages stand in square brackets, end groups in braces. Plain capitals give the bases only. d = 2'-deoxy (DNA)

Tests used:
human TLR9 = target: T1, human TLR9 (Homo sapiens, UniProt Q9NR96); assay: Stimulation of TLR9-transfected cells in vitro (luciferase readout); assay type: cell-based; conditions: quotient between highest value of all concentrations tested and medium control
T1 construct: expressed in transfected cells; host or cells: HEK 293
T1 sequence (Q9NR96 26-1032): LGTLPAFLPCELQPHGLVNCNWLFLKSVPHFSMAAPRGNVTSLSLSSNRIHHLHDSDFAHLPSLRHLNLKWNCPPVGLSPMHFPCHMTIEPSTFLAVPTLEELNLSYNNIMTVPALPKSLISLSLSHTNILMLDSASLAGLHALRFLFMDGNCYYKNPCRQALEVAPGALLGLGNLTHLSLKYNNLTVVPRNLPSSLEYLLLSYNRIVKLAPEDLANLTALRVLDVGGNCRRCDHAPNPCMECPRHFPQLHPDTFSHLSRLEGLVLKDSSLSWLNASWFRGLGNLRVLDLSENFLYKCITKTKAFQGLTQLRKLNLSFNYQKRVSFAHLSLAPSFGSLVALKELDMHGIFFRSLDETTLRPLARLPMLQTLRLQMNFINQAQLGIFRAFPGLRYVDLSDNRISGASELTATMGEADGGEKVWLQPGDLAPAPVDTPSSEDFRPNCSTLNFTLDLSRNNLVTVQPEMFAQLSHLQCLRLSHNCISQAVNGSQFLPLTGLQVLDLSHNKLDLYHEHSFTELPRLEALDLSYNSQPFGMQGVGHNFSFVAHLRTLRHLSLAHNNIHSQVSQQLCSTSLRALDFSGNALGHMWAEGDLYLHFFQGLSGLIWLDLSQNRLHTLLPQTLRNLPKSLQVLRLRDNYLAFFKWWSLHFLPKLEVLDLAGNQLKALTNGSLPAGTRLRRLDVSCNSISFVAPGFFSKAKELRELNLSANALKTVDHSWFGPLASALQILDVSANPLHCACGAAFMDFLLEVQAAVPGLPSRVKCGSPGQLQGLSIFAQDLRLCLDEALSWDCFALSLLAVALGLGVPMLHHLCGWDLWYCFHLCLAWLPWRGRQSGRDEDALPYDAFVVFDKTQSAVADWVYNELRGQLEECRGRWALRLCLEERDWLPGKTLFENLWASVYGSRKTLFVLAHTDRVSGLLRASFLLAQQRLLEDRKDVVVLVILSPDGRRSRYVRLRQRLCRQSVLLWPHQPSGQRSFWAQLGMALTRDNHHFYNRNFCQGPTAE
Experimental: Methods: HEK 293 cells transfected with human TLR9 were incubated with SEQ ID NO:1, SEQ ID NO:2, SEQ ID NO:3, SEQ ID NO:4, SEQ ID NO:5, or SEQ ID NO:6 for 16 hours. The signal was determined by a luciferase readout.
The EC50 was calculated using Sigma Plot (SigmaPlot 2002 for Windows version 8.0). The maximal stimulation index (max SI) was calculated as the quotient between the highest value of all concentrations tested for any ODN and the medium control.

human PBMC = assay: Cytokine secretion (IL-10, TNF-alpha, interferon-gamma, IL-6) from human PBMC; assay type: cell-based; conditions: human PBMC (3 donors), 48 hours, ELISA, FIG. 27
Experimental: Peripheral blood buffy coat preparations from healthy male and female human donors were obtained from the Blood Bank of the University of Düsseldorf (Germany) and from these, PBMC were purified by centrifugation over Ficoll-Hypaque (Sigma). The purified PBMC were either used freshly (for most assays) or were suspended in freezing medium and stored at −70° C. When required, aliquots of these cells were thawed, washed and resuspended in RPMI 1640 culture medium (BioWhittaker, Belgium) supplemented with 5% (v/v) heat inactivated human AB serum (BioWhittaker, Belgium) or 10% (v/v) heat inactivated FCS, 2 mM L-glutamine (BioWhittaker), 100 U/ml penicillin and 100 μg/ml streptomycin (Invitrogen (Karlsruhe, Germany)).
Thawed or fresh PBMC were seeded on 48 well flat-bottom plates, or 96 well round-bottom plates, and incubated with ODN in the concentrations as indicated in a humidified incubator at 37° C. Culture supernatants were collected and if not used immediately, were frozen at −20° C. until required. Amounts of cytokines in the supernatants were assessed using commercially available ELISA Kits (Diaclone, USA) or in-house ELISAs developed using commercially available antibodies (from Becton Dickinson/Pharmingen or PBL). […]

guinea pigs [1] = assay: Guinea pig AHR protocol (airway resistance and lung compliance); assay type: in vivo; conditions: guinea pigs, 10, 30, 100 or 300 μl/kg, i.t.
Experimental: Male guinea pigs were sensitized on study days 0 and 4 with antigen (ovalbumin, 0.5 ml, 1% OVA i.p./s.c.) with aluminum hydroxide adjuvant. Guinea pigs were antigen challenged by exposure to inhaled ovalbumin aerosol, twice each week for two consecutive weeks. The first challenge was on study day 13. CpG ODN or vehicle (saline, 20 μl) were administered intranasally once each week, two days before the first antigen challenge of the week. Airways hyperreactivity was assessed 24 hours after the last antigen challenge by measuring bronchoconstriction (increase in airway resistance) to intravenous methacholine. For each animal, a dose-response curve to methacholine was obtained, and airway reactivity was quantified as the area under the curve.
Method: Guinea pigs were sensitized as described in Example 10. The first challenge was on study day 13. Guinea pigs were given intranasally either carrier (saline), OVA alone, of concentrations of SEQ ID NO:7 of 10 μl/kg, 30 μl/kg, 100 μl/kg, or 300 μl/kg, i.t.
Method: Guinea pigs were sensitized as described in Example 10. The first challenge was on study day 13. Guinea pigs were given intranasally either carrier (saline), OVA alone, of concentrations of SEQ ID NO:2 of 10 μl/kg, 30 μl/kg, 100 μl/kg, or 300 μl/kg, i.t.

guinea pigs [2] = assay: Antigen-induced increase in nasal resistance in guinea pigs; assay type: in vivo, guinea pig; conditions: 0.03-1 mg/kg intranasal, over 40 minutes after challenge, FIG. 2
Experimental: Guinea pigs (male, Hartley) were sensitized with antigen (ovalbumin, 5 mg both intraperitoneal and subcutaneous) on study day 0. A boost sensitization (5 mg, intraperitoneal) was given on study day 4. Guinea pigs were antigen challenged by exposure to intranasally-administered antigen twice each week for two consecutive weeks. The first challenge was on study day 14. SEQ ID NO:7 (lot number AQE-03J-001-M, 0.03-1 mg/kg in […] saline) was administered intranasally once each week, two days before the first antigen challenge of the week. With the exception of the final challenge on study day 24, antigen challenge was with ovalbumin (1.5 mg/kg in 150 μl/kg saline). Animals were pretreated with mepyramine (10 mg/kg, intraperitoneal) 30 minutes before challenge to protect against histamine-induced anaphylaxis. On study day 24, guinea pigs were anesthetized to allow measurement of nasal resistance using a Buxco respiratory mechanics system and software. […] Nasal resistance was measured for 40 minutes after challenge.
Methods: To investigate the effects of the CpG oligodeoxynucleotide SEQ ID NO:7 against antigen induced increases in nasal resistance in the guinea pigs guinea pigs were sensitized with antigen, then antigen-challenged nasally. Nasal resistance was measured for 40 minutes after challenge.

BALB/c mice [3] = assay: Antigen-induced IgE and IgG2a production in the mouse; assay type: in vivo; conditions: i.p. 1-1000 μg/kg, serum study day 18, FIG. 19
Experimental: Methods: Mice (male BALB/c) were sensitized on study days 0 and 7 with antigen (ovalbumin, 10 μg, i.p.) and aluminum hydroxide adjuvant Pierce Alum, i.p.). Mice received SEQ ID NO:2 or SEQ ID NO:7 on study days −2, 0, 5 and 7 (i.e. two days before each sensitization and on the day of sensitization). Mice were bled by cardiac puncture on study day 18. Serum was collected by centrifugation and assayed by ELISA for ovalbumin-specific IgE and IgG2a.

BALB/c mice [4] = assay: Mouse model of allergic rhinitis (sneezing, nasal rubbing); assay type: in vivo; conditions: intranasal, 10 minute period after antigen challenge, FIG. 3
Experimental: Mice (male BALB/c) were sensitized on study days 0 and 7 with antigen (ovalbumin, 100 μg, i.p.) with aluminum hydroxide adjuvant (Pierce Alum i.p.). Mice were antigen challenged daily by exposure to intranasally-administered antigen (1 mg in 10 μl saline). The first challenge was on study day 14. SEQ ID NO:7 was administered intranasally twice. The first dose was given 2 days before the first antigen challenge. The second dose was given 7 days later. Alternatively, budesonide (an anti-inflammatory, synthetic corticosteroid) was administered intranasally daily. The first dose was given 2 days before the first antigen challenge. On each day, the budesonide dose was administered intranasally 4 hours before intranasal antigen challenge. Endpoints were measured on study day 26 (i.e. 7 days after the second dose of SEQ ID NO: 7. Nasal tissues were taken for histopathological assessment of inflammation. Separate mice received a final antigen challenge and incidences of sneezing and nasal rubbing were counted for a 10 minute period after challenge.
Methods: BALB/c mice were used to study the effects of SEQ ID NO:7 on symptoms of allergic rhinitis. […] Separate mice received a final antigen challenge and incidences of sneezing and nasal rubbing were counted for a 10 minute period after challenge.

T*T*T*C_G*T*C_G*T*T*T*C_G*T*C_G*T*T (DNA TTTCGTCGTTTCGTCGTT; DNA, backbone and methylation of C not given here; Stabilized (*) and phosphodiester or phosphodiester-like (_) linkages) [SEQ ID NO: 6]
max SI (maximal stimulation index) (human TLR9): 11

T*C_G*T*C_G*A*C_G*T*T*C_G*G*C*G*C_G*C*G*C*C*G (DNA dT*dCdG*dT*dCdG*dA*dCdG*dT*dT*dCdG*dG*dC*dG*dCdG*dC*dG*dC*dC*dG) [SEQ ID NO: 1, Semi-soft class C CpG ODN]
induction of IL-10 (human PBMC): dramatically higher induction
max SI (maximal stimulation index) (human TLR9): 22

T*T*C_G*T*C_G*T*T*T*T_G*T*C_G*T*T (DNA TTCGTCGTTTTGTCGTT; DNA, backbone and methylation of C not given here; Stabilized (*) and phosphodiester or phosphodiester-like (_) linkages) [SEQ ID NO: 5]
max SI (maximal stimulation index) (human TLR9): 13

T*C_G*T*C_G*T*T*T*T*G*A*C_G*T*T*T*T*G*T*C_G*T*T (DNA dT*dCdG*dT*dCdG*dT*dT*dT*dT*dG*dA*dCdG*dT*dT*dT*dT*dG*dT*dCdG*dT*dT) [SEQ ID NO: 7, Semi-soft class B CpG ODN included for comparison, reference compound]
AUC-resistance (airway reactivity, area under the dose-response curve) (guinea pigs [1]): dose-dependent reduction
antigen-induced increase in nasal resistance (guinea pigs [2]): significantly suppressed
production of antigen (ovalbumin)-specific IgE (BALB/c mice [3]): suppressed
production of antigen (ovalbumin)-specific IgG2a (BALB/c mice [3]): potentiated
incidence of nasal rubbing (BALB/c mice [4]): suppressed
incidence of sneezing (BALB/c mice [4]): suppressed

2 (T*C_G*T*C_G*T*C_G*T*T*C_G*G*C*G*C_G*C*G*C*C*G; as printed in the source, key not given here) [compound 2]
induction of IL-10 (human PBMC): dramatically higher induction

T*C_G*T*C_G*A*C_G*A*T*C_G*G*C*G*C_G*C*G*C*C*G (DNA TCGTCGACGATCGGCGCGCGCCG; DNA, backbone and methylation of C not given here; Stabilized (*) and phosphodiester or phosphodiester-like (_) linkages) [SEQ ID NO: 4]
max SI (maximal stimulation index) (human TLR9): 14

T*C_G*T*C_G*T*T*C_G*G*C*G*C*G*C*C*G (DNA TCGTCGTTCGGCGCGCCG; DNA, backbone and methylation of C not given here; Stabilized (*) and phosphodiester or phosphodiester-like (_) linkages) [SEQ ID NO: 3, Semi-soft class C CpG ODN]
max SI (maximal stimulation index) (human TLR9): 16
